Results reported in patent publication US11865103B2, “Methods of treating disorders associated with glycosylation defective proteins” (CASE WESTERN RESERVE UNIVERSITY, priority 2016, dated 2024).

Legend:
[1] = tested on: hCLRN1^N48K-YFP; assay: Hair bundle localization of hCLRN1^N48K-YFP (YFP intensity) in neuromast hair cells of live larvae treated with SERCA inhibitors; format: in vivo, zebrafish; design: key: “—” = The YFP intensity in the bundle is similar to untreated control.; “+” = The YFP intensity in the bundle is higher compared to untreated control; conditions: ART 0.25 μM
[2] = tested on: hCLRN1^N48K-YFP; clrn1^+/+ larvae; assay: Larval survival/lethality by TG or ART dose and treatment duration; format: in vivo, zebrafish; design: key: ‘S’ =Surviving; ‘L’ = Lethal; ‘S/L’ Larvae surviving with apoptosis/necrosis of hair cells
Description: Thapsigargin (TG, 1 mg, Sigma-Aldrich, #T9033) stock in 100% DMSO was diluted in E3 medium to make the required final concentration of the drug. Five different concentrations that were earlier reported to induce ER stress and are non-toxic or lower lethal dose (LD50) in the zebrafish (0.1, 0.5, 1.0, 2.5, 5 μM concentrations) were used in this study. A total of 25 larvae per dosage and treatment duration from the genotypes hCLRN1^N48K-YFP; clrn1^+/+ and hCLRN1-YFP; clrn1^+/+, no older than 72 hours post fertilization (hpf) at the start of the experiment, were placed in a well of 12-well uncoated culture plate (BD Falcon, Canaan, CT). For ER stress induction, larvae were incubated in different dosage of TG from 1 hr to overnight at 28.5° C., followed by three times wash with E3 medium at 28.5° C. (Table 2) and hair cells from the hCLRN1^N48K-YFP; clrn1^+/+ and hCLRN1-YFP; clrn1^+/+ lines were examined for the respective protein distribution pattern in the hair cell bundle and the cell body. Live confocal images of ‘O’ and ‘ML1’ neuromasts per larvae were capture using Leica SP2 confocal microscope with 40× oil immersion objective. Unadjusted 1 micron middle section images of four hair bundles per ML1 neuromast of larvae from TG treated and untreated groups were analyzed using Image J software version v. 1.48 (FIG. 4). The hair bundle trafficked amount of hCLRN1^N48K protein corresponds to the change in YFP intensity in the hair bundle in the TG treated larvae. Quantification of YFP fluorescence intensity was carried out as described in the previous experiment for unconventional trafficking of hCLRN1^N48K-YFP by hGRASP55 cargos. […] Student's t-test was used to confirm the observed changes in the YFP intensity in the hair bundles of TG treatment compared to untreated hCLRN1^N48K-YFP; clrn1^+/+ larvae, is significant (FIG. 4J).
Arthemisinin (ART, 100 mg, Sigma-Aldrich, #361593) in 100% DMSO was diluted in E3 medium to make the final concentration. Five different concentrations within the range of reported ER stress inducing level in the zebrafish (0.1, 0.25, 0.4, 0.5, and 1 μM concentrations) were used in this study. A total of 25 larvae, no older than 72 hpf at the start of the experiment, were placed in a well of 12-well uncoated culture plate (BD 35 Falcon, Canaan, CT). For ER stress induction, larvae were exposed in different dosage of ART for different duration at 28.5° C. (Table 3) and washed three times with E3 medium, and hair cells from the hCLRN1-YFP; clrn1^+/+ larvae and hCLRN1^N48K-YFP; clrn1^+/+ larvae were examined for the respective protein distribution pattern in the hair cell bundle and the cell body. Live confocal Z-stack images of otic ‘O’ and middle ‘ML’ neuromasts per larvae of hCLRN1-YFP; clrn1^+/+ larvae and hCLRN1^N48K-YFP; clrn1^+/+ genotypes from the untreated group in the E3 medium, 0.01% DMSO treatment group and ART treatment group were capture using Leica SP2 confocal microscope at 40× oil immersion objective. Hair cells from 2 otic (0) and 2 middle (ML) neuromasts per larvae were examined for the change in YFP intensity in the hair bundle and cell body. From the captured confocal images of these neuromast hair cells, unadjusted 1 micron middle section images of 4 mature hair bundles from ML1 neuromast per larvae were considered for the YFP intensity quantification in unadjusted ROI covering the middle section of each hair bundles using the imageJ software. […] The hair bundle trafficked amount of hCLRN1^N48K protein corresponds to the change in YFP intensity in the hair bundle in the ART treated larvae. Quantification of YFP fluorescence intensity was carried out as described in the previous experiment for unconventional trafficking of hCLRN1^N48K-YFP by hGRASP55 cargos. Student's t-test was used to confirm the observed changes in the YFP intensity in the hair bundles of ART treatment compared to untreated and TG treated hCLRN1^N48K-YFP; clrn1^+/+ larvae, is significant (FIG. 4J).

C[C@@H]1CC[C@H]2[C@@H](C)C(=O)O[C@@H]3O[C@@]4(C)CC[C@@H]1[C@]32OO4 [ART, Artemisinin]
YFP intensity in the bundle compared to untreated control ([1]; exposure 2 h): —
YFP intensity in the bundle compared to untreated control ([1]; exposure 4 h): —
YFP intensity in the bundle compared to untreated control ([1]; exposure 8 h): —
Larvae survival ([2]; ART 0.1 μM, exposure 1 h): S
Larvae survival ([2]; ART 0.1 μM, exposure 2 h): S
Larvae survival ([2]; ART 0.1 μM, exposure 4 h): S
Larvae survival ([2]; ART 0.1 μM, exposure 6 h): S
Larvae survival ([2]; ART 0.1 μM, exposure 8 h): S
Larvae survival ([2]; ART 0.1 μM, exposure 10 h): S
Larvae survival ([2]; ART 0.1 μM, post-exposure recovery time 10 h): S
Larvae survival ([2]; ART 0.1 μM, post-exposure recovery time 24 h): S
Larvae survival ([2]; ART 0.1 μM, post-exposure recovery time 48 h): S
Larvae survival ([2]; ART 0.25 μM, exposure 1 h): S
Larvae survival ([2]; ART 0.25 μM, exposure 2 h): S
Larvae survival ([2]; ART 0.25 μM, exposure 4 h): S
Larvae survival ([2]; ART 0.25 μM, exposure 6 h): S
Larvae survival ([2]; ART 0.25 μM, exposure 8 h): S
Larvae survival ([2]; ART 0.25 μM, exposure 10 h): S
Larvae survival ([2]; ART 0.25 μM, post-exposure recovery time 10 h): S
Larvae survival ([2]; ART 0.25 μM, post-exposure recovery time 24 h): S
Larvae survival ([2]; ART 0.25 μM, post-exposure recovery time 48 h): S
Larvae survival ([2]; ART 0.4 μM, 4 hours exposure group, post-exposure recovery time 10 h): S
Larvae survival ([2]; ART 0.4 μM, 4 hours exposure group, post-exposure recovery time 24 h): S
Larvae survival ([2]; ART 0.4 μM, 4 hours exposure group, post-exposure recovery time 48 h): S
Larvae survival ([2]; ART 0.4 μM, exposure 1 h): S
Larvae survival ([2]; ART 0.4 μM, exposure 2 h): S
Larvae survival ([2]; ART 0.4 μM, exposure 4 h): S
Larvae survival ([2]; ART 0.4 μM, exposure 6 h): S/L
